Molecular target: 11β-hsd-1 enzyme (Homo sapiens, UniProt P28845)
Assay: biochemical
Settings: for inhibition at 0.1 µM: read-out: % Inh @ 0.1 μM; for inhibition: read-out: % Inh @ 0.1 mM
Method: Percentage of inhibition was determined in a 100 mM Triethanolamine buffer, pH 8.0, 200 mM NaCl, 0.02% n-dodecyl β-D-maltoside and 5 mM β-ME. A typical reaction was carried on a Corning® u-bottom 96-well plate and is described as follows: 11β-hsd-1 enzyme (5 nM, final concentration) was pre-incubated in the presence of the inhibitor and NADPH (500 μM, final concentration) for at least 30 minutes
in the assay buffer. When pre-incubation was completed, the reaction was initiated by adding the regenerating system (2 mM Glucose-6-Phosphate, 1U/mL Glucose-6-Phosphate dehydrogenase, and 6 mM MgCl2, all the concentration reported are final in the assay buffer), and 3H-cortisone (200 nM, final concentration). After 60 minutes, 60 μL of the assay mixture was transferred to a second 96-well plate and mixed with an equal volume of dimethylsulfoxide to stop the reaction. A 15 μL aliquot from the reaction mixture was loaded into a C-18 column (Polaris C18-A, 50×4.6 mm, 5 μ, 180 Angstrom from Varian) connected to an automated High-throughput Liquid Chromatography instrument developed by Cohesive Technologies Inc of Franklin, Mass., with a […] model 3 Radio-HPLC detector from IN/US of Tampa, Fla. The substrate and product peaks were separated by using an isocratic mixture of 43:57 methanol to water (v/v) at a flow rate of 1.0 mL/min.
Percent Inhibition was calculated based on the following equation: (1-(3H-Cortisol peak area in the […] of inhibitor)×100).

11β-hsd-1 enzyme, sequence (P28845 whole entry, species assumed): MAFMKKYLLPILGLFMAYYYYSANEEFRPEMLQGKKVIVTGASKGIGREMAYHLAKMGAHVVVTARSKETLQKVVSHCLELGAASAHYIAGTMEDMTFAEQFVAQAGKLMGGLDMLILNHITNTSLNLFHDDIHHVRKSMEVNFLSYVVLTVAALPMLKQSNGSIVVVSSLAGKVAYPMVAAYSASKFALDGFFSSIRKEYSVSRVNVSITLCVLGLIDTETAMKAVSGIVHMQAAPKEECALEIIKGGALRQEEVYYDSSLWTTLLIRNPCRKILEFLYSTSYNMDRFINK

Row | Structure (SMILES) | inhibition at 0.1 µM | inhibition | also measured
1 | O=S(=O)(Nc1ccc2ncccc2n1)N1CCC(c2ccc(C(F)(F)F)cn2)CC1 [Example 36, N-1,5-naphthyridin-2-yl-4-[5-(trifluoromethyl)pyridin-2-yl]piperidine-1-sulfonamide] | 89% | – | –
2 | CCc1cccc(NS(=O)(=O)N2CCN(c3nc(C)cc(CC(C)C)n3)CC2)n1 [Example 143, N-(6-ethylpyridin-2-yl)-4-(4-isobutyl-6-methylpyrimidin-2-yl)piperazine-1-sulfonamide] | – | 36.7% | –
3 | CCc1cccc(NS(=O)(=O)N2C[C@@H]3[C@H](C2)C3(C#N)N2CCOCC2)n1 (stereo partly shown) [Example 115, (1R*5S*6S*)-6-cyano-N-(6-ethylpyridin-2-yl)-6-morpholin-4-yl-3-azabicyclo[3.1.0]hexane-3-sulfonamide] | – | – | % Inh @ 0.1 mM (Table 2, inhibitor 0.1 mM as printed): 0%
4 | CCc1cccc(NS(=O)(=O)N2CCN(C(C)C)CC2)n1 [Example 61] | 0% | – | –
5 | CCc1cccc(NS(=O)(=O)N2CCN(c3cc(C#N)ccn3)CC2)n1 [Example 184, 4-(4-cyanopyridin-2-yl)-N-(6-ethylpyridin-2-yl)piperazine-1-sulfonamide] | – | 16.8% | –
6 | C[C@H]1CN(S(=O)(=O)Nc2cccc(CO)n2)CCN1c1ccc(C#N)cn1 [Example 58, (3S)-4-(5-cyanopyridin-2-yl)-N-[6-(hydroxymethyl)pyridin-2-yl]-3-methylpiperazine-1-sulfonamide] | 100% | – | –
7 | CCc1cccc(NS(=O)(=O)N2CCN(C)CC(COCc3c(F)cccc3F)C2)n1 (stereo not shown) [Example 142, 6-{[(26-difluoro-benzyl)oxy]methyl)-N-(6-ethylpyridin-2-yl)-4-methyl-14-diazepane-1-sulfonamide] | – | 5.9% | –
8 | CC1CN(c2ccc(C#N)cn2)CCN1S(=O)(=O)Nc1cccc(CO)n1 (stereo not shown) [Example 59, 4-(5-cyanopyridin-2-yl)-N-[6-(hydroxymethyl)pyridin-2-yl]-2-methylpiperazine-1-sulfonamide] | 94.2% | – | –
9 | CCc1cccc(NS(=O)(=O)N2CCC3(CC2)CC(=O)c2cc(Cl)ccc2O3)n1 [Example 65] | 4.7% | – | –
10 | CCc1cccc(NS(=O)(=O)N2CCC(Oc3ccc(C#N)cc3OC)CC2)n1 [Example 110, 4-(4-cyano-2-methoxy-phenoxy)-N-(6-ethylpyridin-2-yl)piperidine-1-sulfonamide] | – | 8% | –
11 | CCc1cccc(NS(=O)(=O)N2CCN(c3cnccn3)CC2)n1 [Example 199, N-(6-ethylpyridin-2-yl)-4-pyrazin-2-ylpiperazine-1-sulfonamide] | – | 31.3% | –
12 | CCc1cccc(NS(=O)(=O)N2CCN(c3ccc(C)cc3)C(=O)C2)n1 [Example 189, N-(6-ethylpyridin-2-yl)-4-(4-methylphenyl)-3-oxopiperazine-1-sulfonamide] | – | 24.9% | –
13 | CCc1cccc(NS(=O)(=O)N2CCC(c3cccc(C(=O)N(CC)CC)c3)CC2)n1 [Example 79, NN-diethy-3-(1-{[(6-ethylpyridin-2-yl)amino]sulfonyl}piperidin-4-yl)benzamide] | – | 51.1% | –
14 | O=S(=O)(Nc1ccc2ccccc2n1)N1CCOc2ccccc2C1 [Example 174, N-quinolin-2-yl-23-dihydro-14-benzoxazepine-4(5H)-sulfonamide] | – | 57.9% | –
15 | CCc1cccc(NS(=O)(=O)N2CCC3(CCc4ccccc4O3)CC2)n1 [Example 66] | 42.8% | – | –
16 | O=S(=O)(Nc1ccc2ccccc2n1)N1CCN(c2cnccn2)CC1 [Example 158, 4-pyrazin-2-yl-N-quinolin-2-ylpiperazine-1-sulfonamide] | – | 44.8% | –
17 | CCc1cccc(NS(=O)(=O)N2CCN(c3ccc(C(=O)N4CCOCC4)cn3)CC2)n1 [Example 147, N-(6-ethylpyridin-2-yl)-4-[5-(morpholin-4-ylcarbonyl)pyridin-2-yl]piperazine-1-sulfonamide] | – | 27.2% | –
18 | CCc1cccc(NS(=O)(=O)N2CCN(C3CCCCC3)CC2)n1 [Example 62] | 0% | – | –
19 | Cc1ccnc(N2CCN(S(=O)(=O)Nc3cccc(C)n3)CC2)c1 [Example 6] | 56.2% | – | –
20 | Cc1cc(N)nc(NS(=O)(=O)N2CCn3c(nc4ccccc43)C2)c1 [Example 50] | 100% | – | –
21 | Cc1cc(CC(C)C)nc(N2CCN(S(=O)(=O)Nc3ccc4ccccc4n3)CC2)n1 [Example 175, 4-(4-isobutyl-6-methyl-pyrimidin-2-yl)-N-quinolin-2-ylpiperazine-1-sulfonamide] | – | 50% | –
22 | Cc1cc(N)cc(NS(=O)(=O)N2CCC(C(F)(F)F)CC2)c1 [Example 56] | 100% | – | –
23 | CCc1cccc(NS(=O)(=O)N2CCC(c3ncccn3)CC2)n1 [Example 60, N-(6-ethylpyridin-2-yl)-4-pyrimidin-2-ylpiperidine-1-sulfonamide] | 7% | – | –

Row | Structure (SMILES) | inhibition at 0.1 µM | inhibition | also measured
24 | CCCOC1CCN(S(=O)(=O)Nc2cccc(CC)n2)CC1 [Example 111, N-(6-ethylpyridin-2-yl)-4-propoxypiperidine-1-sulfonamide] | – | 50.8% | –
25 | CCc1cccc(NS(=O)(=O)N2CCN(c3ccc(C(=O)NC(C)C)cn3)CC2)n1 [Example 146, 6-(4-{[(6-ethylpyridin-2-yl)amino]sulfonyl)piperazin-1-yl)-N-isopropylnicotinamide] | – | 30.4% | –
26 | CC(C)NC(=O)c1ccc(N2CCN(S(=O)(=O)Nc3ccc4ccccc4n3)CC2)nc1 [Example 177, N-isopropyl-6-{4-[(quinolin-2-ylamino)sulfonyl]piperazin-1-yl}nicotinamide] | – | 59.4% | –
27 | Cc1cc(N)nc(NS(=O)(=O)N2CCn3c(nc4cccc(C)c43)C2)c1 [Example 49] | 100% | – | –
28 | Cc1cc(N)nc(NS(=O)(=O)N2CCn3c(-c4ccccc4)cnc3C2)c1 [Example 52] | 100% | – | –
29 | CCOCC1CCN(S(=O)(=O)Nc2cccc(CC)n2)CC1 [Example 109, 4-(ethoxymethyl)-N-(6-ethylpyridin-2-yl)pipendine-1-sulfonamide] | – | 58.7% | –
30 | CCc1cccc(NS(=O)(=O)N2CCC(c3cccc(C(N)=O)c3)CC2)n1 [Example 75, 3-(1-{[(6-ethylpyridin-2-yl)amino]sulfonyl}piperidin-4-yl)benzamide] | – | 45.6% | –
31 | CCc1cccc(NS(=O)(=O)N2CCC(c3ccc(C(=O)NC)cc3)CC2)n1 [Example 76, 4-(1-{[(6-ethylpyridin-2-yl)amino]sulfonyl}piperidin-4-yl)-N-methylbenzamide] | – | 34.4% | –
32 | CCc1cccc(NS(=O)(=O)N2Cc3ccccc3C2)n1 [Example 202, N-(6-ethylpyridin-2-yl)-13-dihydro-2H-isoindole-2-sulfonamide] | – | 2.4% | –
33 | O=S(=O)(Nc1ccc2ccccc2n1)N1CCCN(c2ncccn2)CC1 [Example 163, 4-pyrimidin-2-yl-N-quinolin-2-yl-14-diazepane-1-sulfonamide] | – | 10.5% | –
34 | Cc1cc(N)nc(NS(=O)(=O)N2CCn3c(nc4cc(C(F)(F)F)ccc43)C2)c1 [Example 47] | 100% | – | –
35 | N#Cc1cccnc1N1CCCN(S(=O)(=O)Nc2ccc3ccccc3n2)CC1 [Example 168, 4-(3-cyanopyridin-2-yl)-N-quinolin-2-yl-14-diazepane-1-sulfonamide] | – | 56.7% | –
36 | Cc1cccc(NS(=O)(=O)N2CCOCC2c2ccc(F)cc2)n1 (stereo not shown) [Example 21] | 10.6% | – | –
37 | CCc1cccc(NS(=O)(=O)N2CCC(c3cccc(C(=O)Nc4ccccn4)c3)CC2)n1 [Example 73, 3-(1-{[(6-ethylpyridin-2-yl)amino]sulfonyl}pipendin-4-yl)-N-pyridin-2-ylbenzamide] | – | 49.6% | –
38 | CCc1cccc(NS(=O)(=O)N2CCC3(CCc4cc(C)ccc4O3)CC2)n1 [Example 64] | 5.4% | – | –
39 | Cc1cc(N)cc(NS(=O)(=O)N2CCC(Oc3ccccc3)CC2)c1 [Example 55] | 92% | – | –
40 | CCc1cccc(NS(=O)(=O)N2CCC(c3c[nH]c4ccccc34)CC2)n1 [Example 67] | 62.6% | – | –
41 | Cc1ccc2oc(N3CCN(S(=O)(=O)Nc4ccc5ccccc5n4)CC3)nc2n1 [Example 179, 4-(5-methyl[13]oxazolo[45-b]pyridin-2-yl)-N-quinolin-2-ylpiperazine-1-sulfonamide] | – | 0% | –
42 | CCc1cccc(NS(=O)(=O)N2CCN(c3cc(C)nc(C)c3)CC2)n1 [Example 188, 4-(26-dimethylpyridin-4-yl)-N-(6-ethylpyridin-2-yl)piperazine-1-sulfonamide] | – | 5.5% | –
43 | Cc1cccc(NS(=O)(=O)N2CCN(c3ncccc3C(F)(F)F)CC2)n1 [Example 5] | 44.6% | – | –
44 | CCc1cccc(NS(=O)(=O)N2CCCC(c3nc(C)no3)C2)n1 (stereo not shown) [Example 72, N-(6-ethylpyridin-2-yl)-3-(2-methyl-124-oxadiazol-5-yl)piperidine-1-sulfonamide] | – | 56.7% | –
45 | CCc1cccc(NS(=O)(=O)N2CCN(Cc3c(F)cccc3F)CC(COC)C2)n1 (stereo not shown) [Example 141, 4-(26-difluorobenzyl)-N-(6-ethylpyridin-2-yl)-6-(methoxymethyl)-14-diazepane-1-sulfonamide] | – | 13.8% | –
46 | Cc1cccc(NS(=O)(=O)N2CCCCCC2)n1 [Example 130, N-(6-methylpyridin-2-yl)azepane-1-sulfonamide] | – | 56.7% | –

Reference: patent US20070027118A1 (priority 2005, published 2007)
